According to ChEMBL document CHEMBL1201862, “PubChem BioAssay data set” (2004):
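Method: 48-hour compound exposure of cells in 96-well plates, five concentrations, linear interpolation of endpoints. At the GI50, growth is halved.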 Activity calls are given as the source filed them. No stated cut-off is given here; in the data, active = GI50 up to about 1.1 µM and inactive = higher.

Tests used:
Assay in all cases: inhibition of tumour cell growth, NCI panel, 48 h
RPMI-8226 = system: RPMI-8226
EKVX = system: EKVX
Malme-3M = system: Malme-3M
K562 = system: K562
KM12 = system: KM12
MDA-MB-435 = system: MDA-MB-435
HT-29 = system: HT-29
SNB-75 = system: SNB-75
A498 = system: A498
NCI-H226 = system: NCI-H226
T47D = system: T47D
NCI-H23 = system: NCI-H23
NCI-H460 = system: NCI-H460
OVCAR-5 = system: OVCAR-5
SK-MEL-28 = system: SK-MEL-28
HOP-62 = system: HOP-62
SF-295 = system: SF-295
OVCAR-4 = system: OVCAR-4
COLO 205 = system: COLO 205
CAKI-1 = system: CAKI-1

Measured: GI50

CC1CN=C(NCc2ccccc2)S1 (stereo unspecified)
inactive: RPMI-8226 > 100 µM | EKVX > 100 µM | Malme-3M > 100 µM | K562 48.2 µM | KM12 > 100 µM | MDA-MB-435 39.1 µM | HT-29 > 100 µM | SNB-75 > 100 µM | A498 > 100 µM | NCI-H226 86.7 µM | T47D > 100 µM | NCI-H23 > 100 µM | NCI-H460 > 100 µM | OVCAR-5 > 100 µM | SK-MEL-28 > 100 µM | HOP-62 > 100 µM

N#CCCC1C(C#N)C2(Cl)CC1(Cl)C(Cl)=C2Cl (stereo unspecified)
inactive: RPMI-8226 > 10 µM | EKVX > 10 µM | SF-295 > 10 µM | OVCAR-4 > 10 µM | Malme-3M > 10 µM | K562 > 10 µM | KM12 > 10 µM | MDA-MB-435 > 10 µM | HT-29 > 10 µM | SNB-75 > 10 µM | A498 > 10 µM | NCI-H226 > 10 µM | T47D > 10 µM | NCI-H23 > 10 µM | COLO 205 > 10 µM | CAKI-1 > 10 µM | NCI-H460 > 10 µM | OVCAR-5 > 10 µM | SK-MEL-28 > 10 µM | HOP-62 > 10 µM

Cc1cn(C2CC(O)C(Cn3nncc3Cn3ncc(=O)[nH]c3=O)O2)c(=O)[nH]c1=O (stereo unspecified)
inactive: RPMI-8226 > 100 µM | EKVX > 100 µM | SF-295 > 100 µM | OVCAR-4 > 100 µM | Malme-3M > 100 µM | KM12 > 100 µM | MDA-MB-435 > 100 µM | A498 > 100 µM | NCI-H226 > 100 µM | T47D > 100 µM | NCI-H23 > 100 µM | COLO 205 > 100 µM | CAKI-1 > 100 µM | OVCAR-5 > 100 µM | SK-MEL-28 > 100 µM | HOP-62 > 100 µM

CC[N+]1(C)CCC(O)(c2ccc(Cl)cc2)C(C(=O)c2ccc(Cl)cc2)C1 (stereo unspecified)
inactive: RPMI-8226 1.73 µM | EKVX > 10 µM | SF-295 > 10 µM | OVCAR-4 29.3 µM | Malme-3M 7.31 µM | K562 4.09 µM | KM12 16.9 µM | MDA-MB-435 19.8 µM | HT-29 29.1 µM | SNB-75 > 10 µM | A498 27.9 µM | NCI-H226 23.8 µM | T47D 2.79 µM | NCI-H23 17.4 µM | COLO 205 4.89 µM | NCI-H460 27.5 µM | OVCAR-5 19.1 µM | SK-MEL-28 16 µM | HOP-62 23.8 µM

CCCCOC(=O)CN1C(=O)c2ccccc2C1=O
inactive: EKVX > 100 µM | SF-295 > 100 µM | OVCAR-4 > 100 µM | Malme-3M > 100 µM | KM12 > 100 µM | HT-29 > 100 µM | SNB-75 > 100 µM | NCI-H226 > 100 µM | NCI-H23 > 100 µM | COLO 205 > 100 µM | CAKI-1 84.5 µM | NCI-H460 > 100 µM | OVCAR-5 > 100 µM | SK-MEL-28 > 100 µM | HOP-62 > 100 µM

CCC1=NC(C(F)(F)F)(C(F)(F)F)N=C(N2CCOCC2)O1
inactive: RPMI-8226 > 100 µM | EKVX > 100 µM | SF-295 > 100 µM | OVCAR-4 > 100 µM | K562 > 100 µM | KM12 > 100 µM | MDA-MB-435 > 100 µM | HT-29 > 100 µM | SNB-75 > 100 µM | T47D > 100 µM | NCI-H23 > 100 µM | COLO 205 > 100 µM | CAKI-1 34.5 µM | NCI-H460 > 100 µM | OVCAR-5 > 100 µM | SK-MEL-28 > 100 µM

CC1(C)CCc2cc3c(-c4ccccc4)cc(=O)oc3cc2O1
inactive: RPMI-8226 > 100 µM | EKVX > 100 µM | SF-295 48.3 µM | Malme-3M > 100 µM | K562 > 100 µM | HT-29 > 100 µM | SNB-75 13.7 µM | A498 > 100 µM | NCI-H226 > 100 µM | NCI-H23 > 100 µM | COLO 205 > 100 µM | CAKI-1 > 100 µM | NCI-H460 > 100 µM | SK-MEL-28 > 100 µM

CCOC(=O)c1csc(NC(=O)CN(C)C)n1
inactive: RPMI-8226 > 100 µM | EKVX > 100 µM | SF-295 > 100 µM | OVCAR-4 > 100 µM | K562 > 100 µM | KM12 > 100 µM | MDA-MB-435 > 100 µM | HT-29 > 100 µM | SNB-75 > 100 µM | A498 > 100 µM | NCI-H226 > 100 µM | T47D > 100 µM | NCI-H23 > 100 µM | COLO 205 > 100 µM | CAKI-1 > 100 µM | NCI-H460 > 100 µM | OVCAR-5 > 100 µM | SK-MEL-28 > 100 µM | HOP-62 > 100 µM

O=c1c2ccccc2[nH]c2cc(O)cc(O)c12
inactive: SF-295 42.9 µM | OVCAR-4 > 100 µM | Malme-3M 56.8 µM | K562 66.4 µM | KM12 34.9 µM | HT-29 40.2 µM | SNB-75 47.9 µM | NCI-H226 27.2 µM | NCI-H23 22.9 µM | NCI-H460 32.8 µM | SK-MEL-28 > 100 µM
